SMILES strings stand for the structures. Values after ≈ are worked out from the molar mass of the structure shown.

As usually defined, the MIC is the lowest concentration that inhibits growth of the organism. A lower MIC goes with greater potency.

Among the test systems are Streptococcus mutans; Escherichia coli ML-35p; Escherichia coli; Staphylococcus sp.; Escherichia coli AB94012; Bacillus megaterium Bm11; Escherichia coli D21.
Holding throughout (assay): ≥ marks a high value that may be exact or a test limit, other limits are often not marked, values filed in µg/mL are converted to µM
In experiment [1] the test system is Escherichia coli ATCC 25726.
Experiment [2] deals with Staphylococcus aureus ATCC 25923.
The subject of experiment [3] is Batrachochytrium dendrobatidis JEL-197.
The subject of experiment [4] is Candida albicans ATCC 90028.
The test system of experiment [5] is Staphylococcus aureus NCTC 8325.
Experiment [6] relates to Enterobacter cloacae NHTCC 53001.
Experiment [7] has as its system Pseudomonas aeruginosa ATCC 27853.
For experiment [8], the system named is Escherichia coli ATCC 25922.
Experiment [9] has as its system Klebsiella pneumoniae KK3 9904.
Experiment [10] has as its system Candida albicans ATCC 20032.
For experiment [11], the system named is Staphylococcus aureus ATCC 43300.
In experiment [12] the test system is Pseudomonas aeruginosa 08031014.
The test system of experiment [13] is Bacillus subtilis ATCC 6633.
The test system of experiment [14] is Pseudomonas aeruginosa PAO1.
Experiment [15] concerns Staphylococcus aureus P1374.
The test system of experiment [16] is Bacillus subtilis AB91021.
Experiment [17] deals with Staphylococcus aureus P969.
The subject of experiment [18] is Staphylococcus epidermidis P1111.
The subject of experiment [19] is Staphylococcus epidermidis P1368.
In experiment [20] the test system is Bacillus thuringiensis AB92037.
For experiment [21], the system named is Staphylococcus aureus P1386.
The subject of experiment [22] is Staphylococcus aureus P1383.
For experiment [23], the system named is Staphylococcus aureus AB94004.
In experiment [24] the test system is Staphylococcus aureus P1369.
The test system of experiment [25] is Pseudomonas aeruginosa AB93066.
The test system of experiment [26] is Staphylococcus epidermidis P1389.
Experiment [27] concerns Staphylococcus aureus P1381.
In experiment [28] the test system is Proteus vulgaris OX19 ATCC 6380.
Experiment [29] has as its system Shigella flexneri ATCC 203.
For experiment [30], the system named is Staphylococcus aureus Cowan 1.
Experiment [31] concerns Pseudomonas aeruginosa OT97.
Experiment [32] deals with Staphylococcus aureus JC-1.

For the molecule `CC[C@H](C)[C@H](NC(=O)CN)C(=O)N[C@@H](Cc1ccccc1)C(=O)N[C@@H](CO)C(=O)N[C@@H](C)C(=O)N[C@@H](CC(C)C)C(=O)N[C@@H](C)C(=O)N[C@@H](C)C(=O)NCC(=O)N[C@H](C(=O)N[C@@H](CCCCN)C(=O)N[C@@H](CC(C)C)C(=O)N[C@@H](CC(C)C)C(=O)NCC(=O)N[C@@H](CC(N)=O)C(=O)N[C@H](C(=O)N[C@@H](CC(C)C)C(=O)N[C@@H](Cc1ccccc1)C(=O)N[C@@H](CCCCN)C(=O)N[C@@H](CCSC)C(=O)N[C@@H](C)C(=O)NCC(=O)N[C@@H](CCCCN)C(=O)N[C@@H](C)C(=O)NCC(=O)N[C@@H](C)C(=O)N[C@@H](CCC(=O)O)C(=O)N[C@@H](Cc1cnc[nH]1)C(=O)N[C@@H](CC(C)C)C(=O)N[C@@H](C)C(=O)N[C@H]1CSSC[C@@H](C(=O)O)NC(=O)[C@H](CCC(N)=O)NC(=O)[C@H](CC(N)=O)NC(=O)[C@H]([C@@H](C)O)NC(=O)[C@H](C)NC(=O)[C@H](CCCCN)NC1=O)[C@@H](C)O)C(C)C` [GIFSALAAGVKLLGNTLFKMAGKAGAEHLACKATNQC], the MIC in experiment [1] was 25 µM (≈ 92.6 µg/mL); in [2] it was 12.5 µM (≈ 46.3 µg/mL); in experiment [3] it was 12.5 µM (≈ 46.3 µg/mL); in experiment [4] it was at least 50 µM.

Turning to `CC[C@H](C)[C@H](NC(=O)[C@H](Cc1cnc[nH]1)NC(=O)[C@H](CCCCN)NC(=O)CNC(=O)[C@H](C)NC(=O)[C@@H](NC(=O)[C@H](CCCCN)NC(=O)[C@H](CC(C)C)NC(=O)[C@@H](NC(=O)CNC(=O)[C@H](CCCCN)NC(=O)[C@H](CC(C)C)NC(=O)[C@@H](NC(=O)[C@H](CO)NC(=O)[C@H](CCSC)NC(=O)[C@H](CC(C)C)NC(=O)CN)C(C)C)C(C)C)[C@@H](C)O)C(=O)N[C@@H](Cc1ccccc1)C(=O)N[C@@H](CCCCN)C(=O)N[C@@H](CC(N)=O)C(=O)N[C@H](C(=O)NCC(=O)NCC(=O)N[C@@H](CO)C(=O)N[C@@H](CC(C)C)C(=O)N[C@@H](CC(C)C)C(=O)N[C@@H](CC(=O)O)C(=O)N[C@@H](CCC(N)=O)C(=O)N[C@@H](C)C(=O)N[C@@H](CCCCN)C(=O)N[C@H]1CSSC[C@@H](C(=O)O)NC(=O)[C@H](CCC(N)=O)NC(=O)CNC(=O)[C@H]([C@@H](C)O)NC(=O)[C@H]([C@@H](C)CC)NC(=O)[C@H](CCCCN)NC1=O)C(C)C` [GLMSVLKGVLKTAGKHIFKNVGGSLLDQAKCKITGQC], the MIC in experiment [5] is 25 µM (≈ 96.1 µg/mL); in [6], 6 µM (≈ 23.1 µg/mL); in experiment [7], 3 µM (≈ 11.5 µg/mL); in experiment [8], 3 µM (≈ 11.5 µg/mL); in experiment [9], 6 µM (≈ 23.1 µg/mL); in experiment [4], at least 100 µM.

Molecule `CC[C@H](C)[C@H](NC(=O)[C@H](CCC(=O)O)NC(=O)[C@H](CCCCN)NC(=O)[C@@H](NC(=O)[C@H](CC(N)=O)NC(=O)[C@H](CCC(=O)O)NC(=O)[C@H](C)NC(=O)[C@H](CC(C)C)NC(=O)[C@@H](N)CCCCN)C(C)C)C(=O)N[C@@H](CC(C)C)C(=O)N[C@@H](CCCN=C(N)N)C(=O)O` [KLAENVKEILR] showed an MIC in the experiment with Streptococcus mutans of at least 190 µM.

Turning to `CC[C@H](C)[C@H](NC(=O)[C@H](CCCCN)NC(=O)[C@@H](NC(=O)[C@H](Cc1c[nH]c2ccccc12)NC(=O)[C@H](CS)NC(=O)[C@H](CCCNC(=N)N)NC(=O)[C@@H]1CCCN1C(=O)[C@H](CCCNC(=N)N)NC(=O)[C@H](CC(C)C)NC(=O)[C@H](CO)NC(=O)[C@@H](N)CCCCN)[C@@H](C)CC)C(=O)N[C@@H](CCCCN)C(=O)N[C@@H](Cc1ccccc1)C(=O)N[C@@H](CCCNC(=N)N)C(=O)N[C@@H](CS)C(=O)N[C@@H](CCCCN)C(=O)N[C@@H](CO)C(=O)N[C@@H](CC(C)C)C(=O)N[C@@H](CCCCN)C(=O)N[C@@H](Cc1ccccc1)C(=O)O` [KSLRPRCWIKIKFRCKSLKF], the MIC in experiment [10] was 3.7 µM (≈ 9.38 µg/mL); in experiment [11], 3.7 µM (≈ 9.38 µg/mL); in experiment [12], 14.8 µM (≈ 37.5 µg/mL); in experiment [2] it was 3.7 µM (≈ 9.38 µg/mL); in experiment [7] it was 3.7 µM (≈ 9.38 µg/mL); in experiment [13] it was at least 39.4 µM. The MIC in experiment [8] worked out at 7.39 µM (≈ 18.8 µg/mL); in the experiment with Escherichia coli ML-35p, 7.39 µM (≈ 18.8 µg/mL); against Escherichia coli it was 20.9 µM (≈ 53 µg/mL); in [14], 3.7 µM (≈ 9.38 µg/mL).

For the molecule `CC[C@H](C)[C@H](NC(=O)[C@H](CC(C)C)NC(=O)[C@H](CO)NC(=O)[C@H](CCCCN)NC(=O)[C@@H](NC(=O)[C@H](CC(C)C)NC(=O)[C@H](CCCN=C(N)N)NC(=O)[C@H](Cc1ccccc1)NC(=O)[C@@H](N)CC(C)C)[C@@H](C)CC)C(=O)N[C@@H](CCCCN)C(=O)N[C@@H](CCCN=C(N)N)C(=O)N[C@@H](CC(C)C)C(=O)N[C@H](C(=O)N[C@@H](CO)C(=O)N[C@@H](C)C(=O)N[C@@H](Cc1ccccc1)C(=O)N[C@@H](CCCCN)C(N)=O)C(C)C` [LFRLIKSLIKRLVSAFK], the MIC in [15] worked out at 3.94 µM (≈ 8 µg/mL); in [16], 12.3 µM (≈ 25 µg/mL); in experiment [17], 19.7 µM (≈ 40 µg/mL); in experiment [18], 9.84 µM (≈ 20 µg/mL); in experiment [19] it was 3.94 µM (≈ 8 µg/mL); in [20], 12.3 µM (≈ 25 µg/mL). For the same molecule, the MIC in the experiment on Staphylococcus sp. turned out to be 2.46 µM (≈ 5 µg/mL); in the experiment with Escherichia coli AB94012, 6.15 µM (≈ 12.5 µg/mL); in experiment [21], 12.3 µM (≈ 25 µg/mL); in [22] it was 4.92 µM (≈ 10 µg/mL); in [23] it was 2.46 µM (≈ 5 µg/mL); in [24] it was 3.94 µM (≈ 8 µg/mL). The figures for the MIC in experiment [25], in [26] and in experiment [27] were at least 49.2 µM, 3.94 µM (≈ 8 µg/mL) and 9.84 µM (≈ 20 µg/mL), respectively.

For the molecule `CC[C@H](C)[C@H](NC(=O)[C@H](CCCCN)NC(=O)[C@@H](NC(=O)[C@@H](NC(=O)[C@H](CCC(N)=O)NC(=O)CNC(=O)[C@H](Cc1cnc[nH]1)NC(=O)[C@H](CCC(N)=O)NC(=O)[C@H](CC(N)=O)NC(=O)[C@H](CCC(N)=O)NC(=O)[C@@H](N)C(C)C)C(C)C)C(C)C)C(=O)N[C@@H](Cc1ccccc1)C(=O)N[C@@H](Cc1cnc[nH]1)C(=O)N[C@@H](Cc1cnc[nH]1)C(=O)O` [VQNQHGQVVKIFHH], the MIC with Bacillus megaterium Bm11 is at least 4800 µM; in [28], at least 6000 µM; in experiment [29], at least 4800 µM; in experiment [30] it was at least 6000 µM; in [31] it was at least 6000 µM; in experiment [32], at least 3200 µM. For the same molecule, the minimal inhibitory concentration (MIC) (in experiment [13]; with Escherichia coli D21) was at least 6000 µM in each case.

For the origin of these results see DBAASP.
